Some results are limits rather than exact numbers.

One compound from patent US12139498B1, “Positive allosteric modulators of the muscarinic acetylcholine receptor M4” (Vanderbilt University, priority 2023, dated 2024) can be followed below.

The target in one data set is T1, Human M4 (Homo sapiens, UniProt P08173).
T1 sequence (P08173 1-479): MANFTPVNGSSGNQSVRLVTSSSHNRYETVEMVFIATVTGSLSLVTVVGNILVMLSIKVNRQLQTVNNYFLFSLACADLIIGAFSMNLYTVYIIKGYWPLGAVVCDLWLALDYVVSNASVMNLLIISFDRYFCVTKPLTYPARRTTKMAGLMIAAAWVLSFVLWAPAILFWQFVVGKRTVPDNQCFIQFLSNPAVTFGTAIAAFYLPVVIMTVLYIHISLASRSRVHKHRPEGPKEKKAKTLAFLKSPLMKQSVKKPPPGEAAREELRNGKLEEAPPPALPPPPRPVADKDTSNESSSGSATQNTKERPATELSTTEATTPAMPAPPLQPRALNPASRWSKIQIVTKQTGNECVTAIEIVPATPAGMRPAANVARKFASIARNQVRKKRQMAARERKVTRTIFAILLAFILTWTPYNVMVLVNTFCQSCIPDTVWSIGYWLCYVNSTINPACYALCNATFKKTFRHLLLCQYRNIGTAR
Kind of data set: M4 cell-based functional assay (calcium mobilization). Further details: expressed in transfected cells. The essentials:
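CHO-K1 cells stably co-expressing hM4 and chimeric Gqi5, loaded with Fluo-4-AM (1.15 μM final, 45 min, 37° C). Compound added ~140 s before EC20 then EC80 acetylcholine; calcium flux by kinetic fluorescence (ex 480/em 530 nm), expressed as fold over basal and normalized to maximal ACh response (1 mM).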

A short description of another data set: Dog intrinsic clearance. In kind it is in vitro ADME. The method, then: (§1) Compound 70 was tested in several in in vitro assays to investigate both metabolism and pharmacokinetics. These assays may be performed according to known methods as generally described in the following references: Conde-Ceide et al. ACS Med. Chem. Lett. 2015, 6, 716-720; Morris et al. J. Med. Chem. 2014, 57, 10192-10197; and Bubser et al. ACS Chem. Neurosci. 2014, 5, 920-942.

A further data set deals with T2, P450 1A2 (Homo sapiens, UniProt P05177).
T2 sequence (P05177 1-516): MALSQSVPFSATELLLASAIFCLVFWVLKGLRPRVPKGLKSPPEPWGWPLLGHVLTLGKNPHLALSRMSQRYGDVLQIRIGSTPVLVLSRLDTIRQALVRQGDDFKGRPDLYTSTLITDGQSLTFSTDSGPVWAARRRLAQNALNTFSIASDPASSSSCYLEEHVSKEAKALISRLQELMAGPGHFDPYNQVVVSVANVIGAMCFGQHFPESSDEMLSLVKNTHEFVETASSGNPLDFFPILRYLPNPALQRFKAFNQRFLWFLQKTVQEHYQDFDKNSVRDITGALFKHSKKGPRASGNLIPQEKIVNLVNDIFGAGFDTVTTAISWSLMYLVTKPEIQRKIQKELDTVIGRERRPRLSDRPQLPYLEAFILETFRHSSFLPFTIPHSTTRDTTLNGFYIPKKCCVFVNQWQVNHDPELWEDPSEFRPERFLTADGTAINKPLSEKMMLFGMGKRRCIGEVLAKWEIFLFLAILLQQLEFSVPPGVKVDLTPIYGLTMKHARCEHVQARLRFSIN
Kind of data set: P450 1A2 inhibition. In kind it is in vitro ADME. The method, then:
as §1

The target in another data set is P450 2C9 (Homo sapiens, UniProt P11712). Kind of data set: P450 2C9 inhibition. In kind it is in vitro ADME. The method, then:
as §1

Data set [1] can be described thus: Fraction unbound in rat brain. The format is in vitro ADME. The settings on record: read-out: Rat Fu (brain). The method, then:
as §1

P450 2C9, sequence (P11712 whole entry): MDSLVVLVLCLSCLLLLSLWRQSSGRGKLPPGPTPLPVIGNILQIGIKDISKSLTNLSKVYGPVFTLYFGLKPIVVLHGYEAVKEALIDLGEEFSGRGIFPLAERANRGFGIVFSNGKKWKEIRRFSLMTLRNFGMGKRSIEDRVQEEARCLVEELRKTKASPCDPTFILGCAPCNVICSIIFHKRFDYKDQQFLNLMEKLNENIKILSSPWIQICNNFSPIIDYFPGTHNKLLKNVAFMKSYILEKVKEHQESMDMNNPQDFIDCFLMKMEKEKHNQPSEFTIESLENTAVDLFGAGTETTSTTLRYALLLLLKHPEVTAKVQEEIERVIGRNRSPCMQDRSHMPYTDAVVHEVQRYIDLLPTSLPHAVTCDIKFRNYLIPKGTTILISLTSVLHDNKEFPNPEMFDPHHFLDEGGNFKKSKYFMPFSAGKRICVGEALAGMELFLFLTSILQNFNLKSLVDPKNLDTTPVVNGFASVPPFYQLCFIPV

For the compound `Cc1c(N2CCc3nc(C4(F)CC4)sc3C2)nc2nn(C)c(=O)n2c1C` [Compound 70, 7-(2-(1-fluorocyclopropyl)-6,7-dihydrothiazolo[5,4-c]pyridin-5(4H)-yl)-2,5,6-trimethyl-[1,2,4]triazolo[4,3-a]pyrimidin-3(2H)-one], the maximal response (Emax) (as a rule, the maximal effect, on the per cent scale that the assay sets) at 30 µM on Human M4 (% ACh maximum at 30 μM) was 77%. Further, on Human M4 (CHO-K1 hM4-Gqi5 cells, calcium flux, increase in EC20 acetylcholine response), the EC50 (in general, the concentration that produces a half-maximal response) is 0.004 µM. Moreover, the intrinsic metabolic clearance (CLint scaled) – broadly, a measure of how fast metabolising enzymes remove a compound, apart from limits set by blood flow – in the data set “Dog intrinsic clearance” was determined as 17 mL/min/kg. Besides, the IC50 on P450 1A2 and at P450 2C9 was greater than 30 µM throughout. The fraction unbound in data set [1] was determined as 0.06.
